Test results published in patent US9346782B2, “Alkyl linked quinolinyl modulators of RORγt” (Janssen Pharmaceutica NV, priority 2013, dated 2016).
Counter-ions that a name gives are not always drawn.

Experiments:
[1] = system: IL-17 production by CD4 T cells; assay: Human Th17 Assay; assay type: cell-based; conditions: 3 days
Description: The human Th17 assay tests the effect of RORγt modulatory compounds on IL-17 production by CD4 T cells under conditions which favor Th17 differentiation. Total CD4^+ T cells were isolated from the peripheral blood mononuclear cells (PBMC) of healthy donors using a CD4^+ T cell isolation kit II, following the manufacturer's instructions (Miltenyi Biotec). Cells were resuspended in a medium of RPMI-1640 supplemented with 10% fetal bovine serum, penicillin, streptomycin, glutamate, and β-mercaptoethanol and were added to 96-well plates at 1.5×10^5 per 100 μL per well. 50 μL of compound at titrated concentrations in DMSO were added into each well at final DMSO concentration at 0.2%. Cells were incubated for 1 hour, then 50 μL of Th17 cell differentiation medium was added to each well. The final concentrations of antibodies and cytokines (R&D Systems) in differentiation medium were: 3×10^6/mL anti-CD3/CD28 beads (prepared using human T cell activation/expansion kit, Miltenyi Biotec), 10 μg/mL anti-IL4, 10 μg/mL anti-IFNγ, 10 ng/mL IL1β, 10 ng/mL IL23, 50 ng/mL IL6, 3 ng/mL TGFβ and 20 U/mL IL2. Cells were cultured at 37° C. and 5% CO2 for 3 days. Supernatants were collected and the accumulated IL-17 in culture was measured by using MULTI-SPOT® Cytokine Plate following manufacture's instruction (Meso Scale Discovery). The plate was read using Sector Imager 6000, and IL-17 concentration was extrapolated from the standard curve. The IC50s were determined by GraphPad.

human RORγt LBD = human RORγt LBD (Homo sapiens (Human), UniProt P51449); assay: RORγt Reporter Assay; assay type: cell-based; conditions: for IC50 / RORγt reporter Assay, % inhibition @ 6 μM: HEK293T cells; for inhibition at 6 µM: HEK-293T, read-out: RORγt reporter Assay, % inhibition @ 6 μM, HEK293T cells, 6 μM
Sequence of human RORγt LBD (P51449 258-518): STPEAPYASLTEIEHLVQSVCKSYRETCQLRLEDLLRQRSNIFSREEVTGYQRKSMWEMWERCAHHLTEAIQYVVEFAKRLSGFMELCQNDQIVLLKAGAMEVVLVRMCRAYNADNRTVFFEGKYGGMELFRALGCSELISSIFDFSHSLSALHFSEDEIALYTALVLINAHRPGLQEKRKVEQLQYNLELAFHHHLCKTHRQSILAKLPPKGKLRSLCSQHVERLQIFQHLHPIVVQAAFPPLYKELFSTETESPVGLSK
Description: A reporter assay was used to test functional activity of RORγt modulatory compounds on transcriptional activation driven by the RORγt LBD. Cells used in the assay were co-transfected with two constructs. The first construct, pBIND-RORγt LBD, contained the wild type human RORγt LBD fused to the DNA binding domain of the GAL4 protein. The second construct, pGL4.31 (Promega Cat no. C935A), contained multiple GAL4 responsive DNA elements upstream of firefly luciferase. […] The mutant construct was called pBIND-RORγt-AF2.
The pBIND vector contains the GAL4 DNA Binding Domain (GAL4 DBD) and the renilla luciferase gene under control of the SV40 promoter. Renilla luciferase expression serves as a control for transfection efficiency and cell viability.
The reporter assay was performed by transiently transfecting HEK293T cells with 5 μg of pBIND-RORγt LBD or pBIND-RORγt LBD-AF2 and 5 μg pGL4.31 (Promega Cat no. C935A) using Fugene 6 (Invitrogen Cat no. E2691) at a 1:6 ratio of DNA:Fugene 6 in a T-75 flask in which cells were at least 80% confluent. Twenty four hours after bulk transfection, cells were plated into 96-well plates at 50,000 cells/well in phenol-red free DMEM containing 5% Lipid Reduced FCS and Pen/Strep. Six hours after plating, cells were treated with compounds for 24 hours. Media was removed and cells were lysed with 50 μL 1× Glo Lysis Buffer (Promega). Dual Glo Luciferase Reagent (50 μL/well) was then added and firefly luciferase luminescence was read on an Envision after a ten minute incubation. Finally, Stop and Glo reagent (50 μL/well) was added and renilla luciferase luminescence was read on an Envision after a ten minute incubation. To calculate the effect of compounds on RORγt activity, the ratio of firefly to renilla luciferase was determined and plotted against compound concentration. Agonist compounds increase RORγt-driven luciferase expression, and antagonist or inverse agonist compounds decrease luciferase expression.

Row | SMILES | IC50 [1] [nM] | IC50 (human RORγt LBD) [nM] | RORγt reporter Assay, % inhibition @ 6 μM (human RORγt LBD) [%] | inhibition at 6 µM (human RORγt LBD) [%] | IC50 ([1]; Homo sapiens, 72 h) [nM]
1 | CCC(O)(c1ccc2nc(Cl)c(-c3ccccc3)c(Cl)c2c1)c1cc(C)no1 (stereo not shown) [Example 2, 1-(2,4-Dichloro-3-phenylquinolin-6-yl)-1-(3-methylisoxazol-5-yl)propan-1-ol.TFA] | – | – | – | – | ~6000
2 | CC(C)C(O)(c1ccc2nc(Cl)c(-c3ccccc3)c(Cl)c2c1)c1cncn1C (stereo not shown) [Example 5, 1-(2,4-Dichloro-3-phenylquinolin-6-yl)-2-methyl-1-(1-methyl-1H-imidazol-5-yl)propan-1-ol] | – | 1300 | – | 118 | –
3 | CCC(O)(c1ccc2nc(OC)c(Cc3ccc(S(C)(=O)=O)cc3)c(Cl)c2c1)c1cncn1C (stereo not shown) [Example 6, 1-(4-Chloro-2-methoxy-3-(4-(methylsulfonyl)benzyl)quinolin-6-yl)-1-(1-methyl-1H-imidazol-5-yl)propan-1-ol] | – | 1700 | – | 76 | –
4 | C#CC(O)(c1ccc2nc(OC)c(Cc3ccc(C(F)(F)F)cc3)c(Cl)c2c1)C1CN(C(=O)OC(C)(C)C)C1 (stereo not shown) [Example 8, tert-Butyl-3-(1-(4-chloro-2-methoxy-3-(4-(trifluoromethyl)benzyl)quinolin-6-yl)-1-hydroxyprop-2-yn-1-yl)azetidine-1-carboxylate] | – | 4000 | – | 71 | –
5 | COc1nc2ccc(C(C)(O)c3oc(C)nc3C)cc2c(Cl)c1Cc1ccc(C(F)(F)F)cc1 (single isomer, unassigned) [Example 10a, 1-(4-Chloro-2-methoxy-3-(4-(trifluoromethyl)benzyl)quinolin-6-yl)-1-(2,4-dimethyloxazol-5-yl)ethanol] | – | 250 | – | 101 | –
6 | Cc1nc(C)c(C(O)(c2ccc3nc(Cl)c(-c4ccccc4)c(Cl)c3c2)C(C)C)s1 (stereo not shown) [Example 15, 1-(2,4-Dichloro-3-phenylquinolin-6-yl)-1-(2,4-dimethylthiazol-5-yl)-2-methylpropan-1-ol] | – | ~500 | – | 99 | –
7 | CCCCC(O)(c1ccc2nc(Cl)c(-c3ccccc3)c(Cl)c2c1)c1cc(C)no1 (stereo not shown) [Example 1, 1-(2,4-Dichloro-3-phenylquinolin-6-yl)-1-(3-methylisoxazol-5-yl)pentan-1-ol.TFA] | – | – | – | – | ~3000
8 | C#CC(O)(c1ccc2nc(OC)c(Cc3ccc(C(F)(F)F)cc3)c(Cl)c2c1)C1CN(C(C)=O)C1 (stereo not shown) [Example 7a, 1-(3-(1-(4-Chloro-2-methoxy-3-(4-(trifluoromethyl)benzyl)quinolin-6-yl)-1-hydroxyprop-2-yn-1-yl)azetidin-1-yl)ethanone] | – | 230 | – | 95 | –
9 | Cn1cncc1C(O)(c1ccc2nc(Cl)c(-c3ccccc3)c(Cl)c2c1)C1CC1 (stereo not shown) [Example 3, Cyclopropyl(2,4-dichloro-3-phenylquinolin-6-yl)(1-methyl-1H-imidazol-5-yl)methanol] | – | > 6000 | – | 56 | –
10 | COc1nc2ccc(C(C)(O)c3cncn3C)cc2c(Cl)c1Cc1ccc(C(F)(F)F)cc1 (stereo not shown) [Example 9a, 1-(4-Chloro-2-methoxy-3-(4-(trifluoromethyl)benzyl)quinolin-6-yl)-1-(1-methyl-1H-imidazol-5-yl)ethanol] | – | 280 | – | 98 | –
11 | CCCCC(O)(c1ccc2nc(Cl)c(-c3ccccc3)c(Cl)c2c1)c1cncn1C (stereo not shown) [Example 4, 1-(2,4-Dichloro-3-phenylquinolin-6-yl)-1-(1-methyl-1H-imidazol-5-yl)pentan-1-ol.TFA] | – | 1500 | – | 114 | –
12 | COc1nc2ccc(C(C)(O)c3cncn3C)cc2c(Cl)c1Cc1ccc(C(F)(F)F)cc1 (single isomer, unassigned) [Example 9b, 1-(4-Chloro-2-methoxy-3-(4-(trifluoromethyl)benzyl)quinolin-6-yl)-1-(1-methyl-1H-imidazol-5-yl)ethanol] | – | 1300 | – | 89 | –
13 | C#CC(O)(c1ccc2nc(OC)c(Cc3ccc(C(F)(F)F)cc3)c(Cl)c2c1)C1CN(C(C)=O)C1 (single isomer, unassigned) [Example 7b, 1-(3-(1-(4-chloro-2-methoxy-3-(4-(trifluoromethyl)benzyl)quinolin-6-yl)-1-hydroxyprop-2-yn-1-yl)azetidin-1-yl)ethanone] | – | 360 | – | 97 | –

Second part, led by results:

Row | IC50 [1] [nM] | IC50 (human RORγt LBD) [nM] | RORγt reporter Assay, % inhibition @ 6 μM (human RORγt LBD) [%] | inhibition at 6 µM (human RORγt LBD) [%] | SMILES | IC50 ([1]; Homo sapiens, 72 h) [nM]
14 | 60 | 46 | 100 | – | COc1nc2ccc(C(C)(O)c3ccc(C)nc3C)cc2c(Cl)c1Cc1ccc(C(F)(F)F)cc1 (single isomer, unassigned) [Example 13c, 1-(4-Chloro-2-methoxy-3-(4-(trifluoromethyl)benzyl)quinolin-6-yl)-1-(2,6-dimethylpyridin-3-yl)ethanol] | –
15 | 870 | 210 | – | 98 | COc1nc2ccc(C(C)(O)c3cnnn3C)cc2c(Cl)c1Cc1ccc(C(F)(F)F)cc1 (single isomer, unassigned) [Example 11b, 1-(4-Chloro-2-methoxy-3-(4-(trifluoromethyl)benzyl)quinolin-6-yl)-1-(1-methyl-1H-1,2,3-triazol-5-yl)ethanol] | –
16 | – | 210 | – | 81 | C#CC(O)(c1ccc2nc(OC)c(Cc3ccc(C(F)(F)F)cc3)c(Cl)c2c1)c1cnc(C)n1C (stereo not shown) [Example 14a, 1-(4-Chloro-2-methoxy-3-(4-(trifluoromethyl)benzyl)quinolin-6-yl)-1-(1,2-dimethyl-1H-imidazol-5-yl)prop-2-yn-1-ol] | –
17 | – | 110 | – | 102 | COc1nc2ccc(C(C)(O)c3cnnn3C)cc2c(Cl)c1Cc1ccc(C(F)(F)F)cc1 (stereo not shown) [Example 11a, 1-(4-Chloro-2-methoxy-3-(4-(trifluoromethyl)benzyl)quinolin-6-yl)-1-(1-methyl-1H-1,2,3-triazol-5-yl)ethanol] | –
18 | 290 | 310 | 94 | – | C#CC(O)(c1ccc2nc(OC)c(Cc3ccc(C(F)(F)F)cc3)c(Cl)c2c1)c1cnc(C)n1C (single isomer, unassigned) [Example 14c, 1-(4-Chloro-2-methoxy-3-(4-(trifluoromethyl)benzyl)quinolin-6-yl)-1-(1,2-dimethyl-1H-imidazol-5-yl)prop-2-yn-1-ol] | –
19 | 170 | 200 | – | 101 | COc1nc2ccc(C(C)(O)c3ccc(C)nc3C)cc2c(Cl)c1Cc1ccc(C(F)(F)F)cc1 (single isomer, unassigned) [Example 13b, 1-(4-Chloro-2-methoxy-3-(4-(trifluoromethyl)benzyl)quinolin-6-yl)-1-(2,6-dimethylpyridin-3-yl)ethanol] | –
20 | – | 370 | – | 99 | COc1nc2ccc(C(C)(O)c3cnc(C)n3C)cc2c(Cl)c1Cc1ccc(C(F)(F)F)cc1 (stereo not shown) [Example 12a, 1-(4-Chloro-2-methoxy-3-(4-(trifluoromethyl)benzyl)quinolin-6-yl)-1-(1,2-dimethyl-1H-imidazol-5-yl)ethanol] | –
21 | – | 52 | – | 103 | COc1nc2ccc(C(C)(O)c3ccc(C)nc3C)cc2c(Cl)c1Cc1ccc(C(F)(F)F)cc1 (stereo not shown) [Example 13a, 1-(4-Chloro-2-methoxy-3-(4-(trifluoromethyl)benzyl)quinolin-6-yl)-1-(2,6-dimethylpyridin-3-yl)ethanol] | –
22 | – | 500 | – | 98 | CCC(O)(c1ccc2nc(OC)c(Cc3ccc(C(F)(F)F)cc3)c(Cl)c2c1)C1CN(C(=O)OC(C)(C)C)C1 (stereo not shown) [Example 17, tert-Butyl-3-(1-(4-chloro-2-methoxy-3-(4-(trifluoromethyl)benzyl)quinolin-6-yl)-1-hydroxypropyl)azetidine-1-carboxylate] | –
